Experimental data reported in US5859026A, “Quinoline carboxylic acid” (priority 1995, dated 1999).
≈ marks a conversion by molar mass, not a printed value.

How the values were obtained:
E. colacae 963 = test: Antibacterial activity (MIC), standard strain; assay type: cell-based; details: Enterobacter cloacae; standard strain E. colacae 963, Gram -, 10^6 viable cells per ml; read-out: minimum inhibitory concentration (MIC)
Experimental: (§1) 1. Antibacterial spectrum against standard strains and clinically isolated strains
Antibacterial activities (minimum inhibitory concentration: MIC) were determined according to the standard method of the Japan Society of Chemotherapy (Chemotherapy (Tokyo), 29 (1), 76, 1981) by using standard strains and strains isolated from patients of infectious disease (clinically isolated strains) and applying 10^6 viable cells per ml. […].

S. aureus FDA 209P JC-1 = test: Antibacterial activity (MIC), standard strain; assay type: cell-based; details: Staphylococcus aureus, FDA209P; standard strain S. aureus FDA 209P JC-1, Gram +, 10^6 viable cells per ml; read-out: minimum inhibitory concentration (MIC)
Text: as §1

K. pneumoniae PCI-602 = test: Antibacterial activity (MIC), standard strain; assay type: cell-based; details: Klebsiella pneumoniae, PCI602; standard strain K. pneumoniae PCI-602, Gram -, 10^6 viable cells per ml; read-out: minimum inhibitory concentration (MIC)
Text: as §1

S. marcescens IAM 1184 = test: Antibacterial activity (MIC), standard strain; assay type: cell-based; details: Serratia marcescens, IAM1184; standard strain S. marcescens IAM 1184, Gram -, 10^6 viable cells per ml; read-out: minimum inhibitory concentration (MIC)
Text: as §1

E. coli NIHJ JC-2 = test: Antibacterial activity (MIC), standard strain; assay type: cell-based; details: Escherichia coli, NIHJJC2; standard strain E. coli NIHJ JC-2, Gram -, 10^6 viable cells per ml; read-out: minimum inhibitory concentration (MIC)
Text: as §1

A. calcoaceticus HNR916 = test: Antibacterial activity (MIC), clinically isolated strain; assay type: cell-based; details: Acinetobacter calcoaceticus; clinical isolate A. calcoaceticus HNR916, Gram -, 10^6 viable cells per ml; read-out: minimum inhibitory concentration (MIC)
Text: as §1

S. aureusHPC292 = test: as above; assay type: cell-based; details: Staphylococcus aureus; clinical isolate S. aureus HPC292, Gram +, 10^6 viable cells per ml; read-out: minimum inhibitory concentration (MIC)
Text: as §1

K. pneumoniae HNR869 = test: as above; assay type: cell-based; details: Klebsiella pneumoniae; clinical isolate K. pneumoniae HNR869, Gram -, 10^6 viable cells per ml; read-out: minimum inhibitory concentration (MIC)
Text: as §1

S. aureus HPC308 = test: as above; assay type: cell-based; details: Staphylococcus aureus; clinical isolate S. aureus HPC308, Gram +, 10^6 viable cells per ml; read-out: minimum inhibitory concentration (MIC)
Text: as §1

A. calcoaceticus HNR904 = test: as above; assay type: cell-based; details: Acinetobacter calcoaceticus; clinical isolate A. calcoaceticus HNR904, Gram -, 10^6 viable cells per ml; read-out: minimum inhibitory concentration (MIC)
Text: as §1

S. aureus HPC527 = test: as above; assay type: cell-based; details: Staphylococcus aureus; clinical isolate S. aureus HPC527, Gram +, 10^6 viable cells per ml; read-out: minimum inhibitory concentration (MIC)
Text: as §1

K. pneumoniae HNR828 = test: as above; assay type: cell-based; details: Klebsiella pneumoniae; clinical isolate K. pneumoniae HNR828, Gram -, 10^6 viable cells per ml; read-out: minimum inhibitory concentration (MIC)
Text: as §1

S. marcescens HNR1544 = test: as above; assay type: cell-based; details: Serratia marcescens; clinical isolate S. marcescens HNR1544, Gram -, 10^6 viable cells per ml; read-out: minimum inhibitory concentration (MIC)
Text: as §1

A. calcoaceticus HNR939 = test: as above; assay type: cell-based; details: Acinetobacter calcoaceticus; clinical isolate A. calcoaceticus HNR939, Gram -, 10^6 viable cells per ml; read-out: minimum inhibitory concentration (MIC)
Text: as §1

E. faecalis HPC984 = test: as above; assay type: cell-based; details: Enterococcus faecalis; clinical isolate E. faecalis HPC984, Gram +, 10^6 viable cells per ml; read-out: minimum inhibitory concentration (MIC)
Text: as §1

E. cloacae HNR1939 = test: as above; assay type: cell-based; details: Enterobacter cloacae; clinical isolate E. cloacae HNR1939, Gram -, 10^6 viable cells per ml; read-out: minimum inhibitory concentration (MIC)
Text: as §1

S. marcescens HNR1767 = test: as above; assay type: cell-based; details: Serratia marcescens; clinical isolate S. marcescens HNR1767, Gram -, 10^6 viable cells per ml; read-out: minimum inhibitory concentration (MIC)
Text: as §1

E. faecalis HPC975 = test: as above; assay type: cell-based; details: Enterococcus faecalis; clinical isolate E. faecalis HPC975, Gram +, 10^6 viable cells per ml; read-out: minimum inhibitory concentration (MIC)
Text: as §1

S. marcescens HNR1792 = test: as above; assay type: cell-based; details: Serratia marcescens; clinical isolate S. marcescens HNR1792, Gram -, 10^6 viable cells per ml; read-out: minimum inhibitory concentration (MIC)
Text: as §1

E. cloacae HNR1941 = test: as above; assay type: cell-based; details: Enterobacter cloacae; clinical isolate E. cloacae HNR1941, Gram -, 10^6 viable cells per ml; read-out: minimum inhibitory concentration (MIC)
Text: as §1

E. cloacae HNR1946 = test: as above; assay type: cell-based; details: Enterobacter cloacae; clinical isolate E. cloacae HNR1946, Gram -, 10^6 viable cells per ml; read-out: minimum inhibitory concentration (MIC)
Text: as §1

K. pneumoniae HNR858 = test: as above; assay type: cell-based; details: Klebsiella pneumoniae; clinical isolate K. pneumoniae HNR858, Gram -, 10^6 viable cells per ml; read-out: minimum inhibitory concentration (MIC)
Text: as §1

E. faecalis HPC948 = test: as above; assay type: cell-based; details: Enterococcus faecalis; clinical isolate E. faecalis HPC948, Gram +, 10^6 viable cells per ml; read-out: minimum inhibitory concentration (MIC)
Text: as §1

[1] = test system: Chinese hamster lung cell line (CHL cell); test: Chromosomal aberration test; assay type: cell-based; details: 100 μg/ml, 6 hours treatment at 37° C., then 18 hours in fresh medium
Experimental: 2. Chromosomal aberration test
The experiments were carried out using a Chinese hamster lung cell line (CHL cell). The test compounds prepared were added to cultured cells, and cultivation was continued for 6 hours at 37° C. in 5% CO2. 2-(2-furyl)-3-(5-nitro-2-furyl) acrylamide was used as a positive control. After the cultivation for 6 hours, the cells were washed and added with fresh medium, and then cultivation was further continued for 18 hours. Colcemide solution was added to the culture 2 hours before the completion of the cultivation, and the chromosomal specimens were prepared after the cultivation was completed. Incidence rates of aberration cells were measured at the treatments with 100 μg/ml of the test compounds.

Male Wistar rats = test: Induction of convulsions, intracerebroventricular (i.c.v.) administration; assay type: in vivo, rat; details: 30 minutes after i.p. fenbufen 50 mg/kg, observed at least 4 hours
Experimental: 2) Intracerebroventricular (i.c.v.) administration
Male Wistar rats (weighing 180-220 g) were anesthetized with sodium pentobarbital at 45 mg/kg, i.p., and then the head of the rat was fixed in a stereotaxic apparatus. A stainless steel guide cannula for intracerebroventricular injectionin in 0.6 mm diameter was implanted as a guide cannula so as to be positioned at 1.5 mm above the left lateral cerebroventricle (A:6.2,R:1.0,H:+1.0) according to the brain atlas of De Groot (1959). The guide cannula was fixed by using a dental cement, and then closed with a stainless steel stylet in 0.3 mm diameter. Potassium penicillin G (10,000 units) were subcutaneously administered to prevent an infection. The rats were subjected to the experiments after recovery time for several days from the surgery.
For the measurement of the induction of convulsions, 50 mg/kg of fenbufen was intraperitoneally administered, and then the test compound was intracerebroventricularly administered after 30 minutes from the administration of fenbufen by means of a stainless steel cannula in 0.3 mm diameter that was connected with a polyethylene catheter and adjusted so as to be 1.5 mm longer than the guide cannula for an administration at an accurate position of cerebroventricle (H:+1.0). […] After the completion of the above experiment, the administered positions were confirmed by intraventricularly injecting 10 μl of 1% Evans blue to each of the rats, and followed by sectioning the brains.

male ICR mice = test: Induction of convulsions, intraperitoneal (i.p.) administration; assay type: in vivo, mouse; details: 100 mg/kg i.p., 30 minutes after oral fenbufen 100 mg/kg; for Induction of convulsion, i.p. (number of mice with convulsions): animals with convulsions/animals tested
Text: 4. The induction of convulsions
1) Intraperitoneal (i.p.) administration

Male Hartley guinea pigs = test: Phototoxicity; assay type: in vivo, guinea pig; details: 10 mg/kg intravenous, UV exposure 90 minutes, observed 24 hours after irradiation
Experimental: Male Hartley guinea pigs were intravenously administered with test compounds at a dose of 10 mg/kg, and then immediately exposed to WVA on their backs for 90 minutes. Erythemas on the UV irradiated skin were observed 24 hours after the irradiation.

SMILES | MIC (E. colacae 963) [µg/mL] | MIC (S. aureus FDA 209P JC-1) [µg/mL] | MIC (K. pneumoniae PCI-602) [µg/mL] | MIC (S. marcescens IAM 1184) [µg/mL] | MIC (E. coli NIHJ JC-2) [µg/mL] | MIC (A. calcoaceticus HNR916) [µg/mL] | MIC (S. aureusHPC292) [µg/mL] | MIC (K. pneumoniae HNR869) [µg/mL] | MIC (S. aureus HPC308) [µg/mL] | MIC (A. calcoaceticus HNR904) [µg/mL] | MIC (S. aureus HPC527) [µg/mL] | MIC (S. marcescens HNR1544) [µg/mL] | MIC (E. faecalis HPC984) [µg/mL] | MIC (E. cloacae HNR1939) [µg/mL] | MIC (E. faecalis HPC975) [µg/mL] | MIC (S. marcescens HNR1792) [µg/mL] | MIC (E. cloacae HNR1941) [µg/mL] | MIC (E. cloacae HNR1946) [µg/mL] | MIC (K. pneumoniae HNR858) [µg/mL] | MIC (E. faecalis HPC948) [µg/mL] | further results
CC[C@H]1CN(c2c(F)c(N)c3c(=O)c(C(=O)O)cn(C4CC4)c3c2C)C[C@H]1N [Compound 2, 5-amino-7-((3S,4S)-3-amino-4-ethyl-1-pyrrolidinyl)-1-cyclopropyl-6-fluoro-1,4-dihydro-8-methyl-4-oxoquinoline-3-carboxylic acid] | 0.025 (≈ 0.0644 µM) | 0.006 (≈ 0.0154 µM) | ≤ 0.0015 | 0.1 (≈ 0.257 µM) | 0.012 (≈ 0.0309 µM) | 0.012 (≈ 0.0309 µM) | 0.78 (≈ 2.01 µM) | 1.56 (≈ 4.02 µM) | 0.1 (≈ 0.257 µM) | 3.13 (≈ 8.06 µM) | 0.006 (≈ 0.0154 µM) | 0.05 (≈ 0.129 µM) | 0.05 (≈ 0.129 µM) | 0.2 (≈ 0.515 µM) | 0.78 (≈ 2.01 µM) | 1.56 (≈ 4.02 µM) | 6.25 (≈ 16.1 µM) | 0.2 (≈ 0.515 µM) | 0.2 (≈ 0.515 µM) | 0.2 (≈ 0.515 µM) | MIC (K. pneumoniae HNR828): 3.13 µg/mL (≈ 8.06 µM); MIC (A. calcoaceticus HNR939): 0.2 µg/mL (≈ 0.515 µM); MIC (S. marcescens HNR1767): 12.5 µg/mL (≈ 32.2 µM)
O=C(O)c1cn(C2CC2)c2cc(N3CCNCC3)c(F)cc2c1=O [Reference Compound A, Ciprofloxacin] |  |  |  |  |  |  |  |  |  |  |  |  |  |  |  |  |  |  |  |  | incidence rate of the aberration cells [1]: less than 10%; Induction of convulsions, i.c.v. (in words) (Male Wistar rats): convulsions were observed in all of the animals (each three animals); Induction of convulsion, i.c.v. (number of rats with convulsions) (Male Wistar rats; animals with convulsions/animals tested): 3/3; Induction of convulsions, i.p. (in words) (male ICR mice): convulsions were observed in the half of the animals; Induction of convulsion, i.p. (number of mice with convulsions) (male ICR mice): 3/6
Cc1c(N2C[C@@H](N)[C@@H](C)C2)c(F)c(N)c2c(=O)c(C(=O)O)cn(C3CC3)c12 [Compound 1, 5-amino-7-((3S,4S)-3-amino-4-methyl-1-pyrrolidinyl)-1-cyclopropyl-6-fluoro-1,4-dihydro-8-methyl-4-oxoquinoline-3-carboxylic acid] | 0.012 (≈ 0.032 µM) | 0.006 (≈ 0.016 µM) | 0.0008 (≈ 0.00214 µM) | 0.05 (≈ 0.134 µM) | 0.006 (≈ 0.016 µM) | 0.006 (≈ 0.016 µM) | 0.78 (≈ 2.08 µM) | 0.78 (≈ 2.08 µM) | 0.2 (≈ 0.534 µM) | 1.56 (≈ 4.17 µM) | 0.006 (≈ 0.016 µM) | 0.025 (≈ 0.0668 µM) | 0.05 (≈ 0.134 µM) | 0.1 (≈ 0.267 µM) | 0.78 (≈ 2.08 µM) | 1.56 (≈ 4.17 µM) | 3.13 (≈ 8.36 µM) | 0.1 (≈ 0.267 µM) | 0.1 (≈ 0.267 µM) | 0.1 (≈ 0.267 µM) | incidence rate of the aberration cells [1]: less than 10%; Phototoxicity (in words) (Male Hartley guinea pigs): induced no phototoxicity; Phototoxicity (number of guinea pigs with erythemas) (Male Hartley guinea pigs; animals with erythemas/animals tested): 0/5; Induction of convulsions, i.p. (in words) (male ICR mice): did not induce convulsions; Induction of convulsion, i.p. (number of mice with convulsions) (male ICR mice): 0/6
